Source: paper PMC6832134, “Discovery of Novel Integrase Inhibitors Acting outside the Active Site Through High-Throughput Screening” (Molecules, 2019)
Like-named read-outs stand apart in the source and are kept apart here.

Tests used:
HIV-1 IN (WT) = target: T1, HIV-1 IN (WT) (Human immunodeficiency virus type 1 group M subtype B, UniProt P12497); assay: Gel-based IN strand transfer assay, WT enzyme; format: biochemical
T1 construct: 250 nM of recombinant HIV-1 integrase; made in house; host or cells: E. coli RosettaII
Protocol: (§1) IN reactions were carried out by adding drugs or an equivalent volume of 100% DMSO (dimethyl sulfoxide, used as the drug solvent) to a mixture of 20 nM duplex DNA (21T/21B) and 400 nM IN in 50 mM MOPS pH 7.2, 7.5 mM MgCl2, and 14 mM 2-mercaptoethanol. Reactions were performed at 37 °C for 2 h and quenched by addition of an equal volume of loading buffer [formamide containing 1% SDS (sodium dodecyl sulfate), 0.25% bromophenol blue, and xylene cyanol]. Reaction products were separated in 16% polyacrylamide denaturing sequencing gels. Dried gels were visualized using a Typhoon 8600 (GE Healthcare, Piscataway, NJ, USA). Densitometric analyses were performed using the ImageQuant 5.1 software from GE Healthcare. Data analyses (linear regression, IC50 determination, and standard deviation) were performed using Prism 6.05 software from GraphPad.

HIV-1 IN mutant N155H = target: T2, HIV-1 IN mutant N155H (Human immunodeficiency virus type 1 group M subtype B, UniProt P12497, N1302H); assay: biochemical; format: biochemical
T2 construct: RAL-resistant HIV-1 mutant integrases; made in house; host or cells: E. coli RosettaII
Protocol: as §1

IN-DNA binding = target: T3, IN-DNA binding (Human immunodeficiency virus type 1 group M subtype B, UniProt P12497); assay: IN-DNA binding by fluorescence anisotropy; parameters: species or system HIV-1
T3 construct: 250 nM of recombinant HIV-1 integrase; made in house; host or cells: E. coli RosettaII
Text: Although the CCD alone harbors all of the structural determinants of the active site to support the catalytic activity, the NTD and CTD have been implicated in both the quaternary architecture of the enzyme and DNA binding. Because outer domains (NTD and/or CTD) appeared important in the inhibition of IN by NSC34931, we wondered if stilbene disulfonic acid derivatives might compete with DNA binding. To test whether NSC34931 competed with substrate binding, we developed a plate-based assay with a fluorescent DNA substrate.
In addition, controls with DMSO (0 µM) or without IN (DNA only) were included. Data represent the mean of three independent experiments.
DNA binding was measured using a plate-based assay as previously described. […] Compounds or DMSO were incubated at room temperature for 5 min in the IN-activity buffer, in the absence or the presence of IN (400 nM). After addition of the DNA (10 nM), fluorescence anisotropy was measured every 30 s for 30 min using an Envision plate reader (Perkin Elmer, Waltham, MA, USA).

[1] = target: T4, isolated catalytic core domain (CCD) (51–212) (Human immunodeficiency virus type 1 group M subtype B, UniProt P12497); assay: Schiff base IN-DNA crosslinking assay, isolated CCD; format: binding, HIV-1
T4 construct: the isolated catalytic core domain (CCD) (51–212); made in house; host or cells: E. coli RosettaII
Text: (§2) To gain further evidence that NSC34931 interferes with DNA binding, and to determine the role of outer domains in this inhibition, we evaluated the ability of NSC34931 to inhibit the formation of IN-DNA crosslinks using our previously described Schiff base assay. Briefly, a deoxyuracyl nucleotide is incorporated in the DNA substrate to generate an abasic site via uracyl DNA glycosylase. IN forms a covalent complex (Schiff base), which can be stabilized by reduction with sodium borohydride (Figure 5A). Full-length IN, but also the isolated CCD or CTD domains, can crosslink DNA ([…]). Consistent with anisotropy data, NSC34931 suppresses the formation of IN-DNA crosslinks in the context of the full-length IN (Figure 5B, upper gel). Of note, the effective dose to inhibit this reaction is similar to that needed to inhibit 3′-P or ST (about 0.45 µM). In contrast, the IN CCD requires a 10 times higher concentration of compound to prevent DNA crosslinking, confirming that the NTD or the CTD are important for NSC34931 inhibition. Lastly, the same experiment was conducted with the isolated CTD (Figure 5B, lower gel).
(§3) Figure 5 Inhibition of IN-DNA binding by NSC34931. (A) Principle of the Schiff base crosslinking assay. An abasic site was introduced by uracil DNA glycosylase in the DNA substrate at the -12 position. […]

[2] = target: T5, isolated C-terminal domain (CTD) (220–288) (Human immunodeficiency virus type 1 group M subtype B, UniProt P12497); assay: Schiff base IN-DNA crosslinking assay, isolated CTD; format: binding, HIV-1
T5 construct: the isolated C-terminal domain (CTD) (220–288); made in house; host or cells: E. coli RosettaII
Text: as §2, §3

[3] = test system: VSV pseudo-typed HIV-1 virus particles; assay: organism not typed; format: cell-based
HIV-1 IN = target: T6, HIV-1 IN (Human immunodeficiency virus type 1 group M subtype B, UniProt P12497); assay: Synergy test with the active site inhibitor MK-2048; format: biochemical; details: subinhibitory dose of stilbene disulfonic acid derivative; IC50 of MK-2048 not affected; data not shown
T6 construct: 250 nM of recombinant HIV-1 integrase; made in house; host or cells: E. coli RosettaII

How did the “activity with Mg2+ or Mn2+ as metal cofactor” value (HIV-1 IN (WT); data not shown) turn out when `O=S(=O)(O)c1cc(/N=N/c2cc(S(=O)(=O)O)c3ccccc3c2O)ccc1/C=C/c1ccc(/N=N/c2cc(S(=O)(=O)O)c3ccccc3c2O)cc1S(=O)(=O)O` [NSC34931] was run?
The value was “equally active”.

And the IC50 (HIV-1 IN (WT); gel-based assay, coupled ST, at least three independent experiments, read-out: In Vitro IC50 +/−SD, ST)?
The IC50 was 180 ± 70 nM.

And the IC50 (HIV-1 IN (WT); precleaved substrate (bypassing the 3'-P step), data not shown, read-out: IC50, ST inhibition with precleaved substrate)?
Its IC50 is 230 nM.

What about the IC50 (HIV-1 IN mutant N155H) of the same compound?
Its IC50 is 160 nM.

And the “fold lower concentration for IN-DNA binding inhibition than for inhibition of 3'-P and ST” value (IN-DNA binding)?
The value was “about 10”.

What about the “concentration giving full inhibition of IN-DNA binding” value (IN-DNA binding; fluorescence anisotropy) of the same compound?
Its value is 51 nM.

What about the “effect on IN substrate (DNA) binding” value (IN-DNA binding; fluorescence anisotropy over 30 min) of the same compound?
The value was “strongly and durably prevented IN-DNA binding”.

And the “fold higher concentration required to prevent DNA crosslinking vs full-length IN” value [1]?
Its value is 10.

What about the “inhibition of CTD-DNA crosslinks” value [2] of the same compound?
The value was “in the same concentration range than in the context of the full-length enzyme”.

What about the “Selectivity Index SI” value [3] of the same compound?
The value was 19.2.

And the EC50 ([3]; read-out: Ex Vivo Antiviral Activity EC50)?
Its EC50 is 3070 nM.

And the “synergy with active site inhibitor MK-2048” value (HIV-1 IN)?
The value was “could not see any cooperative effect”.
